Laboratory results: article PMC12640959, “Elucidation of anti-SARS-CoV-2 and anti-inflammatory bioactives in Qingyan Dropping Pills via integrated in silico screening and bioactivity validation” (Frontiers in Medicine, 2025)
Read-outs that look alike come from different tables or passages of the source.

How the values were obtained:
SARS-CoV-2 = test system: SARS-CoV-2; design: method as in PMID 37245876; details: Vero E6 monolayers, noncytotoxic concentrations; cited from earlier work
[1] = target: SARS-CoV-2 papain-like protease (PL^pro) (Severe acute respiratory syndrome coronavirus 2, UniProt P0DTD1); assay: SPR assay (Biacore T200), immobilized PL^pro; type: binding
RdRp = test system: RdRp; design: method as in PMID 33614402; details: cell-free and cell-based assays; cited from earlier work
SARS-CoV-2 Omicron BA.5 = assay: cytopathic effects (CPE) inhibition assay in Vero E6 cells; type: cell-based
SARS-CoV-2 PL^pro = SARS-CoV-2 PL^pro (Severe acute respiratory syndrome coronavirus 2, UniProt P0DTD1); assay: FRET enzymatic inhibition assay on PL^pro; type: biochemical; details: for inhibition on PL^pro at 40 μM: 40 μM compound
in vitro = details: African green monkey
NO = NO level in LPS-induced RAW 264.7 cells; type: cell-based; details: RAW 264.7, LPS 1 μg/mL, 24 h, vs model group, dose-dependent
Source text: (§1) NO is an essential pro-inflammatory factor, which can be not only highly expressed in cells but also promoted the expression of other inflammatory cytokines. TNF-α, IL-6, and IL-1β were considered as the main inflammatory cytokines, which were screened as the key targets in network pharmacology. So, the cytokines, including NO, TNF-α, IL-6, and IL-1β, were selected as indicators to evaluate the anti-inflammatory effects. After cultured in a 96-well plate overnight for 1 × 10^5 cells/well, RAW 264.7 cells were simultaneously treated with the tested compounds (concentration from 5 μM to 100 μM) and lipopolysaccharide (LPS) (concentration with 1 μg/mL) for 24 h. Then, the supernatant was collected to measure the cytokines levels with the corresponding assay kits, respectively.

TNF-α = TNF-α level (ELISA) in LPS-induced RAW 264.7 cells; type: cell-based; details: RAW 264.7, LPS 1 μg/mL, 24 h, vs model group
Source text: as §1

IL-1β = IL-1β level (ELISA) in LPS-induced RAW 264.7 cells; type: cell-based; details: RAW 264.7, LPS 1 μg/mL, 24 h, vs model group
Source text: as §1

SARS-CoV-2 M^pro = SARS-CoV-2 M^pro (Severe acute respiratory syndrome coronavirus 2, UniProt P0DTD1); assay: FRET enzymatic inhibition assay on M^pro; type: biochemical
[2] = MTT cell viability assay in RAW 264.7 cells; type: cell-based; details: mouse
Description: (§2) RAW 264.7 cells were cultured in DMEM with 10% fetal bovine serum, 100 μg/mL streptomycin, and 100 U/mL penicillin at 37 °C and supplemented with 5% CO2 and 95% air. After seeded and cultured in a 96-well plate (2 × 10^5 cells/well, 100 μL medium/well) for overnight, RAW 264.7 were treated with the tested compounds for 24 h, respectively. Then, 50 μL MTT (2.5 mg/mL) was added into each well and incubated at 37 °C for 4 h. Finally, the absorbance was recorded at 490 nm by a microplate reader to assess the cell viability.

IL-6 = IL-6 level (ELISA) in LPS-induced RAW 264.7 cells; type: cell-based; details: RAW 264.7, LPS 1 μg/mL, 24 h, vs model group
Source text: as §1

[3] = target: T1, SARS-CoV-2 spike protein (S^pro) (Severe acute respiratory syndrome coronavirus 2, UniProt P0DTC2); assay: SPR assay (Biacore T200), immobilized S^pro; type: binding; details: CM5 chip, 25 °C, pH 7.4, 5% DMSO, read-out: equilibrium dissociation constant (KD), S^pro
T1 construct: purchased Sino Biological Inc. (Beijing, China)

RAW 264.7 cells = assay: MTT cell viability assay in RAW 264.7 cells; type: cell-based
Description: as §2

[4] = target: SARS-CoV-2 main protease (M^pro) (Severe acute respiratory syndrome coronavirus 2, UniProt P0DTD1); assay: SPR assay (Biacore T200), immobilized M^pro; type: binding; details: CM5 chip, 25 °C, pH 7.4, 5% DMSO
[5] = rat, in vivo, po; cited from earlier work
S^pro RBD = target: S^pro RBD; design: method as in PMID 34403732; details: cited from earlier work
[6] = MTT, 24 h, tested up to 100 μΜ, read-out: CC50 in RAW264.7 cells

## O=C1O[C@H]2[C@@H]3OC(=O)c4cc(O)c(O)c(O)c4-c4c(O)c(O)c5oc(=O)c6c(c(O)c(O)c7oc(=O)c4c5c76)-c4c(cc(O)c(O)c4O)C(=O)OC[C@H]3OC(O)[C@@H]2OC(=O)c2cc(O)c(O)c(O)c2-c2c1cc(O)c(O)c2O (mixture of isomers) [punicalagin]
SARS-CoV-2
  virus-induced plaque formation: reduce

## O=C(O[C@@H]1O[C@@H]2COC(=O)c3cc(O)c(O)c(O)c3-c3c(cc(O)c(O)c3O)C(=O)O[C@H]([C@H]1O)[C@@H]2O)c1cc(O)c(O)c(O)c1 [COR, corilagin]
[1]
  Kd: 6.24 µM
RdRp
  RdRp polymerase activity: robustly inhibiting
SARS-CoV-2 Omicron BA.5; Severe acute respiratory syndrome coronavirus 2, Vero C1008, 48 h
  EC50: 12.8 µM
SARS-CoV-2 PL^pro
  IC50: > 100 µM
SARS-CoV-2 PL^pro; FRET
  inhibition on PL^pro at 40 μM: poor inhibition
In vitro
  CC50 at 48 h: > 100 µM
NO
  production of NO: inhibited
TNF-α
  level of TNF-α: decrease
IL-1β
  level of IL-1β: significantly reduce
SARS-CoV-2 M^pro
  IC50: 0.73 ± 0.05 µM
[2]
  CC50 at 24 h: > 100 µM
IL-6
  level of IL-6: significantly reduce
[3]
  Kd: 0.192 µM

## O=C(O)c1cc(O)c(O)c(O)c1 [GAL, gallic acid]
NO
  production of NO: inhibited
TNF-α
  level of TNF-α: decrease
IL-1β
  level of IL-1β: significantly reduce
[2]; [6]
  CC50 at 24 h: > 100 µM
IL-6
  level of IL-6: significantly reduce

## C[C@H](CCC(=O)NCC(=O)O)[C@H]1CC[C@H]2[C@@H]3[C@H](O)C[C@@H]4C[C@H](O)CC[C@]4(C)[C@H]3C[C@H](O)[C@]12C [GLYCH, glycocholic acid]
NO
  production of NO: inhibited
TNF-α
  level of TNF-α: decrease
IL-1β
  level of IL-1β: significantly reduce
RAW 264.7 cells; MTT, above 40 μΜ, p < 0.05
  cell viability of RAW264.7 cells: significantly decreased
IL-6
  level of IL-6: significantly reduce

## O=C(OC[C@H]1OC(O)[C@@](O)(COC(=O)c2cc(O)c(O)c(O)c2)[C@@H]1O)c1cc(O)c(O)c(O)c1 (stereo partly shown) [HAM, hamamelitannin]
[1]; SPR, CM5 chip, 25 °C, pH 7.4, 5% DMSO
  equilibrium dissociation constant (KD), PL^pro: negligible affinity
[4]
  equilibrium dissociation constant (KD), M^pro: negligible affinity
NO
  production of NO: inhibited
IL-1β
  level of IL-1β: significantly reduce
RAW 264.7 cells
  cell viability of RAW264.7 cells: significantly decreased
IL-6
  level of IL-6: significantly reduce
[3]
  Kd: 0.0933 µM

## O=C(/C=C/c1ccc(O[C@@H]2O[C@H](CO)[C@@H](O)[C@H](O)[C@H]2O)cc1)c1ccc(O)cc1O [ISO, isoliquiritin]
NO
  production of NO: inhibited
TNF-α
  level of TNF-α: decrease
IL-1β
  level of IL-1β: significantly reduce
[2]; [6]
  CC50 at 24 h: > 100 µM
IL-6
  level of IL-6: significantly reduce

## C[C@@H]1O[C@@H](O[C@H]2[C@H](Oc3cc(O)c4c(=O)cc(-c5ccc(O)cc5)oc4c3)O[C@H](CO)[C@@H](O)[C@@H]2O)[C@H](O)[C@H](O)[C@H]1O [RHO, rhoifolin]
[1]; SPR, CM5 chip, 25 °C, pH 7.4, 5% DMSO, read-out: equilibrium dissociation constant (KD), PL^pro
  Kd: 7.72 µM
SARS-CoV-2 PL^pro; FRET, 1 μM protein, 10 μM substrate, read-out: IC50 on PL^pro
  IC50: > 100 µM
SARS-CoV-2 PL^pro; FRET
  inhibition on PL^pro at 40 μM: poor inhibition
NO
  production of NO: inhibited
TNF-α
  level of TNF-α: decrease
IL-1β
  level of IL-1β: significantly reduce
SARS-CoV-2 M^pro; FRET, 0.2 μM protein, 20 μM substrate, read-out: IC50 on M^pro
  IC50: 21.6 ± 8.78 µM
[2]
  CC50 at 24 h: > 100 µM
IL-6
  level of IL-6: significantly reduce
[3]
  Kd: 7.07 µM

## Cn1cnc(Cn2c(=O)[nH]/c(=N\c3cc4cn(C)nc4cc3Cl)n(Cc3cc(F)c(F)cc3F)c2=O)n1 [S-217622, reference compound]
SARS-CoV-2 Omicron BA.5
  EC50: 0.088 µM

## CC1(C)C2CCC1(C)C(O)C2 (stereo not shown) [borneol]
[5]
  Tmax: 20 to 25 min

## O=C(O)C[C@@H]1C(=O)O[C@H]2[C@@H]3OC(=O)c4cc(O)c(O)c(O)c4-c4c(cc(O)c(O)c4O)C(=O)OC[C@H]2O[C@@H](OC(=O)c2cc(O)c(O)c(O)c2)[C@@H]3OC(=O)c2cc(O)c(O)c3c2[C@H]1[C@H](O)C(=O)O3 [chebulagic acid]
SARS-CoV-2
  virus-induced plaque formation: reduce

## O=C(O[C@@H]1Cc2c(O)cc(O)cc2O[C@@H]1c1cc(O)c(O)c(O)c1)c1cc(O)c(O)c(O)c1 [epigallocatechin gallate]
S^pro RBD
  Kd: 11.5 µM

## CC(C)=CCc1c(O)ccc(C(=O)/C=C/c2ccc(O)cc2)c1O [isobavachalcone]
S^pro RBD
  Kd: 5.7 µM

## O=C(/C=C/c1ccc(O)c(O)c1)O[C@@H]1C[C@](O)(C(=O)O)C[C@@H](OC(=O)/C=C/c2ccc(O)c(O)c2)[C@H]1O [isochlorogenic acid A]
S^pro RBD
  Kd: 18.3 µM
